Values after ≈ are worked out from the molar mass of the structure shown. Values joined by “and” are separate entries in the source; they are usually repeats but may differ in a detail not shown here. Equal values may be shown once. Read-outs that look alike come from different tables or passages of the source. Positions of bridges follow the written chain, without caps; N, C: chain ends. Non-standard residues stand in square brackets, D forms with d. No end group written: not given here. Abu = CC[C@H](N)C(=O)O; Dhb = C/C=C(\N)C(=O)O; Dha = C=C(N)C(=O)O
Legend:
[1] = tested on: KYSE 510 (esophageal); set-up: method as in PMID 32009586; conditions: read-out: IC50 (proliferation); cited from earlier work
[2] = biological target: NADH-FMN oxidoreductase; set-up: method as in PMID 9621457; conditions: cited from earlier work
[3] = tested on: E. faecalis (ATCC 1299); assay: MIC, broth microdilution with resazurin; assay type: cell-based; conditions: ATCC1299; Enterococcus faecalis; mean of triplicates
[4] = tested on: KYSE 70 (esophageal); set-up: method as in PMID 32009586; conditions: read-out: IC50 (proliferation); cited from earlier work
[5] = tested on: K. pneumoniae (ATCC 23883); assay: MIC, broth microdilution with resazurin; assay type: cell-based; conditions: Klebsiella pneumoniae, mean of triplicates
[6] = tested on: MSSA biofilm; assay: Antibiofilm assay (biofilm formation); assay type: cell-based, S. aureus; conditions: for MBIC50 (minimum biofilm inhibitory concentration): MSSA biofilm formation
[7] = tested on: HCT116 (colorectal); set-up: method as in PMID 38148556; conditions: read-out: IC50 (proliferation); cited from earlier work
[8] = biological target: NADH-cytochrome c reductase; set-up: method as in PMID 9621457; conditions: cited from earlier work
[9] = tested on: M. avium (ATCC 25291); assay: Antimycobacterial MIC, resazurin microtiter assay; assay type: cell-based; conditions: ATCC25291; Mycobacterium avium; mean of triplicates
[10] = tested on: P. aeruginosa (ATCC 27853); assay: MIC, broth microdilution with resazurin; assay type: cell-based; conditions: Pseudomonas aeruginosa, mean of triplicates
[11] = tested on: KYSE 410 (esophageal); set-up: method as in PMID 32009586; conditions: read-out: IC50 (proliferation); cited from earlier work
[12] = tested on: MRSA planktonic cells; assay: Checkerboard assay; assay type: cell-based, S. aureus; conditions: for MIC: Staphylococcus aureus, read-out: MIC Alone; for MIC Combined: in combination LCC + VAN
Method: (§1) The combinations of LCC with tetracycline and vancomycin were evaluated against MSSA and MRSA, respectively, using a microdilution broth checkerboard assay, according to White and collaborators, adapted with the standard procedure established by the CLSI [51, 54]. The fractional inhibitory concentration (FIC) of the combination between LCC and tetracycline or vancomycin was determined using Mueller–Hinton broth culture medium into 96-well plates, with a final inoculum suspension of 5.0 × 10^5 CFU/mL, incubated at 37 °C for 24 h. After incubation, an aqueous resazurin solution (0.02%) was added to the wells and the FIC values (ratio between the MIC of the drug in combination and the MIC of the drug alone) were determined for each drug (Equations (1) and (2)). The fractional inhibitory concentration index (FICI) was calculated using Equation (3). (1) FICLCC=MIC of drug A in combination/MIC of drug A alone (2) FICD=MIC of drug B in combination/MIC of drug B alone FIC Index (FICI) = FICLCC + FICD(3)
(§2) The combination was classified as synergistic (FICI ≤ 0.5), indifferent (0.5 < FICI < 4), and antagonistic (FICI ≥ 4). The assays were performed in triplicate in independent experiments.

[13] = tested on: MSSA planktonic cells; assay: Checkerboard assay; assay type: cell-based, S. aureus; conditions: for MIC: Staphylococcus aureus, drug alone; for MIC / MIC Combined: checkerboard; for MIC Combined: in combination LCC + TC
Method: as §1, §2

[14] = biological target: NADH-CoQ reductase; set-up: method as in PMID 9621457; conditions: cited from earlier work
[15] = tested on: KYSE 30 (esophageal); set-up: method as in PMID 32009586; conditions: read-out: IC50 (proliferation); cited from earlier work
[16] = tested on: H. pylori (ATCC 43526); assay: MIC, broth microdilution with resazurin; assay type: cell-based; conditions: Helicobacter pylori, mean of triplicates
[17] = tested on: MRSA (ATCC BAA44); assay: MIC, broth microdilution with resazurin; assay type: cell-based; conditions: Staphylococcus aureus (MRSA), mean of triplicates
[18] = tested on: A549 (lung); set-up: method as in PMID 26397392; conditions: at 45 µg/mL; cited from earlier work
[19] = tested on: S. mutans (ATCC 25175); assay: MIC, broth microdilution with resazurin; assay type: cell-based; conditions: ATCC25175; Streptococcus mutans; mean of triplicates
[20] = tested on: S. pneumoniae (ATCC 6305); assay: MIC, broth microdilution with resazurin; assay type: cell-based; conditions: ATCC6305; Streptococcus pneumoniae; mean of triplicates
[21] = tested on: HN22 (oral); set-up: method as in PMID 30129052; conditions: read-out: IC50 (proliferation); cited from earlier work
[22] = tested on: S. sanguinis (ATCC 10556); assay: MIC, broth microdilution with resazurin; assay type: cell-based; conditions: ATCC10556; Streptococcus sanguinis; mean of triplicates
[23] = tested on: Gram-positive bacteria; assay: MIC, panel of Gram-positive bacteria; assay type: cell-based; conditions: all Gram-positive bacteria tested
[24] = tested on: S. epidermidis (ATCC 14990); assay: MIC, broth microdilution with resazurin; assay type: cell-based; conditions: ATCC14990; Staphylococcus epidermidis; mean of triplicates
[25] = tested on: M. kansasii (ATCC 12478); assay: Antimycobacterial MIC, resazurin microtiter assay; assay type: cell-based; conditions: ATCC12478; Mycobacterium kansasii; mean of triplicates
[26] = tested on: Galleria mellonella larvae; assay: Systemic toxicity in Galleria mellonella larvae; assay type: in vivo
Method: The systemic toxicity assay was performed to evaluate the acute toxic effects of LCC, following the procedures described by Megaw [63]. For the experiment, 10 healthy larvae from G. mellonella were randomly selected for each concentration test, with a weight range between 0.2 g and 0.3 g and without melanization aspects. The larvae were chilled on ice for 20 min and had their prolegs cleaned with 70% ethanol. […] Five microliters of the solution were injected into the hemocoel of each larva through the last left proleg using a 25 µL Hamilton syringe. After the administration, the larvae were incubated at 37 °C and their survival was monitored in selected intervals over 72 h. The larvae unable to move when touched and showing elevated levels of melanization were counted as dead. Experiments were performed in triplicate.

[27] = tested on: KYSE 450 (esophageal); set-up: method as in PMID 32009586; conditions: read-out: IC50 (proliferation); cited from earlier work
[28] = biological target: NADH-oxidase; set-up: method as in PMID 9621457; conditions: cited from earlier work
[29] = tested on: M. tuberculosis (ATCC 27294); assay: Antimycobacterial MIC, resazurin microtiter assay; assay type: cell-based; conditions: ATCC27294; Mycobacterium tuberculosis; mean of triplicates
[30] = tested on: S. sobrinus (ATCC 33478); assay: MIC, broth microdilution with resazurin; assay type: cell-based; conditions: ATCC33478; Streptococcus sobrinus; mean of triplicates
[31] = tested on: MSSA (ATCC 6538); assay: MIC, broth microdilution with resazurin; assay type: cell-based; conditions: Staphylococcus aureus (MSSA), mean of triplicates
[32] = tested on: HSC4 (oral); set-up: method as in PMID 30129052; conditions: read-out: IC50 (proliferation); cited from earlier work
[33] = tested on: MRSA biofilm; assay: Antibiofilm assay (biofilm formation); assay type: cell-based, S. aureus; conditions: for MBIC50 (minimum biofilm inhibitory concentration): MRSA biofilm formation
[34] = tested on: T24 (bladder); set-up: method as in PMID 26397392; conditions: at 45 µg/mL; cited from earlier work
[35] = tested on: Vero cells; set-up: method as in PMID 31749783; conditions: cited from earlier work
[36] = tested on: MCF7 (breast); set-up: method as in PMID 26397392; conditions: at 45 µg/mL; cited from earlier work
[37] = tested on: HepG2 (liver); set-up: method as in PMID 32578448; conditions: read-out: IC50 (proliferation); cited from earlier work
[38] = tested on: Staphylococcus aureus (ATCC 29213) membrane; assay: Membrane disruption assay, fluorescence microscopy with SYTO9 and propidium iodide; conditions: S. aureus; LCC at MIC 12.5 µg/mL, 15 min; nisin positive control
Method: Two fluorescent dyes propidium iodide (PI) and SYTO9 were added, which stain cells with disrupted membranes (in pink) and whole membranes (in blue).
The assay was performed using Staphylococcus aureus (ATCC 29213), an MSSA strain. Bacterial cells were cultivated in solid TSA broth (tryptone soya) at 36 °C and stirred at 200 rpm. […] Cells were stained with the Live/Dead BacLight Kit (Thermo-Scientific® L7012, Carlsbad, CA, USA), which is composed of two nucleic acid dyes: SYTO9, which stains all cells, and propidium iodide, which penetrates cells with damaged membranes [60]. The stained cells were immobilized on agarose-covered slides as described by Martins [61]. Untreated S. aureus cells with intact membranes were used as negative controls, and S. aureus cells exposed to nisin (Sigma-Aldrich® N5764, St. Louis, MO, USA) were used as positive controls for membrane damage [62]. Microscopic analyses were carried out using an Olympus BX-61 microscope, equipped with a monochromatic OrcaFlash-2.8 camera (Hamamatsu, Japan), and the software CellSens Dimension Version 11 (Olympus).

[39] = tested on: E. coli respiratory chain; set-up: method as in PMID 9621457; conditions: cited from earlier work
[40] = tested on: Escherichia coli (ATCC 25922); assay: MIC, broth microdilution with resazurin; assay type: cell-based
[41] = ATCC25922, mean of triplicates, read-out: MIC

COc1c(/C=C/C(=O)c2ccc(O)cc2)ccc(O)c1CC=C(C)C [LCC, licochalcone C]
IC50 [1]: 26 µM
IC50 [2]: > 100 µM
MIC [3]: 50 µg/mL (≈ 148 µM)
IC50 [4]: 36 µM
MIC ([5]; ATCC23883, read-out: MIC): > 400 µg/mL
MIC [5]: >400 µg/mL
inhibition of biofilm formation [6]: 75%
MBIC50 (minimum biofilm inhibitory concentration) [6]: 6.25 µg/mL
IC50 [7]: 16.6 µM
IC50 [8]: 29.6 µM
MIC [9]: 62.5 µg/mL (≈ 185 µM)
MIC ([10]; ATCC27853, read-out: MIC): > 400 µg/mL
MIC [10]: >400 µg/mL
IC50 [11]: 19 µM
MIC ([12]; checkerboard, drug alone): 12.5 µg/mL
MIC Combined ([12]; checkerboard): 6.25 µg/mL
FICLCC (fractional inhibitory concentration for LCC) ([12]; combination LCC + VAN): 0.5
MIC [13]: 12.5 µg/mL
MIC Combined [13]: 3.12 µg/mL
FICLCC (fractional inhibitory concentration for LCC) ([13]; combination LCC + TC): 0.25
IC50 [14]: > 100 µM
IC50 [15]: 28 µM
MIC ([16]; ATCC43526, read-out: MIC): 25 µg/mL (≈ 73.9 µM)
MIC [16]: 25 µg/mL (≈ 73.9 µM)
MIC [17]: 12.5 µg/mL (≈ 36.9 µM)
MIC ([17]; read-out: MIC): 12.5 µg/mL (≈ 36.9 µM)
proliferation inhibition [18]: 40%
MIC [19]: 12.5 µg/mL (≈ 36.9 µM)
MIC [20]: 50 µg/mL (≈ 148 µM)
IC50 [21]: 23.8 µM
MIC [22]: 6.2 µg/mL (≈ 18.3 µM)
MIC, range over Gram-positive bacteria [23]: 6.2 to 50.0 µg/mL
MIC [24]: 6.2 µg/mL (≈ 18.3 µM)
MIC [25]: 125 µg/mL (≈ 369 µM)
lethality to larvae ([26]; 100 µg/mL after 80 h treatment): not lethal
larvae survival ([26]; LCC at 12.5, 25, 50, and 100 µg/mL, over a period of 72 h): 100%
IC50 [27]: 28 µM
IC50 [28]: 3 µM
MIC [29]: 31.2 µg/mL (≈ 92.2 µM)
MIC [30]: 12.5 µg/mL (≈ 36.9 µM)
MIC [31]: 12.5 µg/mL (≈ 36.9 µM)
MIC ([31]; read-out: MIC): 12.5 µg/mL (≈ 36.9 µM)
IC50 [32]: 27.1 µM
MBIC50 (minimum biofilm inhibitory concentration) [33]: 6.25 µg/mL
inhibition of biofilm formation ([33]; MRSA, at MBIC50 (6.25 μg/mL)): 87%
proliferation inhibition [34]: 68%
IC50 [35]: 27.7 µg/mL (≈ 81.9 µM)
proliferation inhibition [36]: 47%
IC50 [37]: 50.8 µM
percentage of cells with permeabilized membrane (stained with both fluorophores) [38]: 75%
inhibition of respiratory chain [39]: did not inhibit
MIC [40, 41]: > 400 µg/mL
MIC ([40]; mean of triplicates): >400 µg/mL

CN(C)[C@@H]1C(O)=C(C(N)=O)C(=O)[C@@]2(O)C(O)=C3C(=O)c4c(O)cccc4[C@@](C)(O)[C@H]3C[C@@H]12 [Tetracycline, tetracycline, reference compound]
MIC [3]: 3.3 µg/mL (≈ 7.43 µM)
MIC ([5]; ATCC23883, read-out: MIC): 1.47 µg/mL (≈ 3.31 µM)
MBIC50 (minimum biofilm inhibitory concentration) [6]: 0.046 µg/mL
MIC ([10]; ATCC27853, read-out: MIC): 5.9 µg/mL (≈ 13.3 µM)
MIC [13]: 0.09 µg/mL
MIC Combined [13]: 0.18 µg/mL
FICD (fractional inhibitory concentration for the associated drug) ([13]; combination LCC + TC): 2.0
MIC ([16]; ATCC43526, read-out: MIC): 1.47 µg/mL (≈ 3.31 µM)
MIC [20]: 0.4 µg/mL (≈ 0.9 µM)
MIC [24]: > 5.9 µg/mL
MIC ([31]; read-out: MIC): 0.09 µg/mL (≈ 0.203 µM)
MIC [40, 41]: 0.73 µg/mL (≈ 1.64 µM)

CN[C@H](CC(C)C)C(=O)N[C@H]1C(=O)N[C@@H](CC(N)=O)C(=O)N[C@H]2C(=O)N[C@H]3C(=O)N[C@H](C(=O)N[C@H](C(=O)O)c4cc(O)cc(O)c4-c4cc3ccc4O)[C@H](O)c3ccc(c(Cl)c3)Oc3cc2cc(c3O[C@@H]2O[C@H](CO)[C@@H](O)[C@H](O)[C@H]2O[C@H]2C[C@](C)(N)[C@H](O)[C@H](C)O2)Oc2ccc(cc2Cl)[C@H]1O [Vancomycin, vancomycin, reference compound]
MIC [12]: 0.73 µg/mL
MIC Combined ([12]; checkerboard): 0.36 µg/mL
FICD (fractional inhibitory concentration for the associated drug) ([12]; combination LCC + VAN): 0.5
MIC ([17]; read-out: MIC): 0.73 µg/mL (≈ 0.504 µM)
MBIC50 (minimum biofilm inhibitory concentration) [33]: 0.737 µg/mL and 0.7375 µg/mL

nisin (I[Dhb]AI[Dha]LC[Abu]PGCK[Abu]GALMGCNMK[Abu]A[Abu]CHCSIHV[Dha]K; thioether 8-11, 13-19, 23-26, 25-28, 3-7; UniProt P13068 24-57, looked up) [reference compound]
percentage of cells with permeabilized membrane (stained with both fluorophores) [38]: 95%
